Key:
HDAC1 = molecular target: T1, HDAC1 (Homo sapiens, UniProt Q13547); assay: In vitro HDAC1 inhibitory activity, FLUOR DE LYS HDAC1 fluorometric assay kit; format: biochemical; conditions: HDAC1 enzyme activity in vitro
T1 construct: purchased Enzo Biochem Inc
Source text: The principle was shown in the following reaction formula: HDAC1 catalyzes the deacetylation of a substrate FLUOR DE LYS® Substrate (containing an acetylated side chain), the product can react with FLUOR DE LYS® Developer II to generate fluorescence (shown in the following reaction process), and the inhibitory activity of a molecule to be detected on HDAC1 can be indirectly obtained by detecting the fluorescence intensity of the product. In this experiment, 360 nm was selected as the excitation wavelength and 460 nm as the emission wavelength for detection. FLUOR DE LYS® HDAC1 fluorometric drug discovery assay kit required for experiments was purchased from Enzo Biochem Inc.
During the test, the sample was prepared according to the specific experimental conditions of blocking the HDAC1 enzyme activity of the compound of the present invention in vitro in accordance with Table 2 below.

143B = assay: CellTiter-Glo cell proliferation; format: cell-based; conditions: CTG, 72 hours
Experimental: (§1) The effect of the present invention compound ZZY-003 on the cell proliferation of 50 cell lines was evaluated by CellTiter-Glo (CTG) method, and the 50% inhibitory concentration was calculated by detecting the cell viability after treatment with different drug concentrations. The cells were resuscitated and cultured in their respective culture media. The cells in logarithmic growth phase were harvested and the cells were counted by cell counter. The cell viability was detected by Trypan blue exclusion method to ensure that the cell line viability was more than 96%. The cell concentration was adjusted by diluting with the culture medium, and 90 μL cell suspension was added to the 96-well cell plate (including the cell control T0 on the day of drug treatment) to make the cell density reach the specified concentration. The cells in the 96-well plate were cultured overnight at 37° C., 5% CO2 and 95% humidity. 10 μL culture medium was added to the control cell culture plate. CellTiter-Glo reagent and cell culture plate were placed at room temperature to balance for 30 minutes. The same volume of CellTiter-Glo reagent was added to each well. Vibrate on the orbital shaker for 2 min to make the cells fully lytic. The cell culture plate was placed at room temperature to balance for 10 minutes. Chemiluminescence values were read with EnVision. The storage solution was formed by dissolving the tested compound with the corresponding solvent and diluted in gradient to obtain 10 times working concentration solution, and 10 times solution of positive drug was also prepared. 10 μL drug solution was added to each well in the 96-well plate in which the cells were inoculated, and each cell concentration was provided with three duplicate wells. The highest concentration of the tested compound was 10/50 μM, 9 concentrations and 3.16 times dilution. The cells in the 96-well plate added with drug were cultured at 37° C., 5% CO2 and 95% humidity for 72 hours. CellTiter-Glo reagent and drug-treated cell culture plate were placed at room temperature to balance for 30 minutes. The same volume of CellTiter-Glo reagent was added to each well. Vibrate on the orbital shaker for 2 minutes to make the cells fully lytic. The cell culture plate was placed at room temperature to balance for 10 minutes. Chemiluminescence values were read with EnVision. Data processing: […] Cell survival rate (%)=(Lum drug to be detected−Lum culture medium control)/(Lum cell control−Lum culture medium control)×100%; Lum cell control−Lum culture medium control was set to 100%, LumMedium control value was set to 0%;

786-O = assay: CellTiter-Glo cell proliferation; format: cell-based; conditions: 72 hours
Experimental: as §1

A549 = assay: CellTiter-Glo cell proliferation; format: cell-based; conditions: CTG, 72 hours
Experimental: as §1

B16-F10 = assay: CellTiter-Glo cell proliferation; format: cell-based; conditions: CTG, 72 hours
Experimental: as §1

DLD-1 = assay: CellTiter-Glo cell proliferation; format: cell-based; conditions: CTG, 72 hours
Experimental: as §1

H69AR = assay: CellTiter-Glo cell proliferation; format: cell-based; conditions: CTG, 72 hours
Experimental: as §1

HCT-116 = assay: CellTiter-Glo cell proliferation; format: cell-based; conditions: CTG, 72 hours
Experimental: as §1

Hep G2 = assay: CellTiter-Glo cell proliferation; format: cell-based; conditions: 72 hours
Experimental: as §1

HuCCT1 = assay: CellTiter-Glo cell proliferation; format: cell-based; conditions: 72 hours
Experimental: as §1

JVM-3 = assay: CellTiter-Glo cell proliferation; format: cell-based; conditions: CTG, 72 hours
Experimental: as §1

K-562 = assay: CellTiter-Glo cell proliferation; format: cell-based; conditions: 72 hours
Experimental: as §1

LN-229 = assay: CellTiter-Glo cell proliferation; format: cell-based; conditions: CTG, 72 hours
Experimental: as §1

MCF 10A = assay: CellTiter-Glo cell proliferation; format: cell-based; conditions: CTG, 72 hours
Experimental: as §1

MCF7 = assay: CellTiter-Glo cell proliferation; format: cell-based; conditions: CTG, 72 hours
Experimental: as §1

MDA-MB-231 = assay: CellTiter-Glo cell proliferation; format: cell-based; conditions: CTG, 72 hours
Experimental: as §1

NCI-H1299 = assay: CellTiter-Glo cell proliferation; format: cell-based; conditions: CTG, 72 hours
Experimental: as §1

NCI-H1417 = assay: CellTiter-Glo cell proliferation; format: cell-based; conditions: CTG, 72 hours
Experimental: as §1

OE19 = assay: CellTiter-Glo cell proliferation; format: cell-based; conditions: CTG, 72 hours
Experimental: as §1

PANC-1 = assay: CellTiter-Glo cell proliferation; format: cell-based; conditions: CTG, 72 hours
Experimental: as §1

SF268 = assay: CellTiter-Glo cell proliferation; format: cell-based; conditions: 72 hours
Experimental: as §1

SU-DHL-6 = assay: CellTiter-Glo cell proliferation; format: cell-based; conditions: CTG, 72 hours
Experimental: as §1

[1] = Homo sapiens, read-out: Absolute IC50
[2] = CTG, highest concentration 10/50 μM

T1 sequence (Q13547 whole entry): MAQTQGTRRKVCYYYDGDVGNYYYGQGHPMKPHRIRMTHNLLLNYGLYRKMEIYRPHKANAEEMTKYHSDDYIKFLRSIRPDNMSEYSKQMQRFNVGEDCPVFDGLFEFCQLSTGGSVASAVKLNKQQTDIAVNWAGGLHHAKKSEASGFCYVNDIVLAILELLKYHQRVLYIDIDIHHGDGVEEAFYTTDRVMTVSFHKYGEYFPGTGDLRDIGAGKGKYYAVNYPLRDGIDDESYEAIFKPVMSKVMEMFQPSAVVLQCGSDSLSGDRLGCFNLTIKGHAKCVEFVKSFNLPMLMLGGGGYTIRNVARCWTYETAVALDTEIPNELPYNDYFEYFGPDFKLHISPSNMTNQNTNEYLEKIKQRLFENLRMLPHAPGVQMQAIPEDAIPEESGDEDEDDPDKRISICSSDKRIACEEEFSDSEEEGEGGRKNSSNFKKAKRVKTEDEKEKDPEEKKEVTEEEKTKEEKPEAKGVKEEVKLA

- IC50 (HDAC1): 0.18 µM
- IC50 (786-O; Homo sapiens, 786-0, CTG, read-out: Absolute IC50): 3.91 µM
- IC50 (A549; [1]): 2.21 µM
- IC50 (B16-F10; Mus musculus, read-out: Absolute IC50): 1.03 µM
- IC50 (DLD-1; [1]): 5.13 µM
- IC50 (HCT-116; [1]): 0.43 µM
- IC50 (K-562; Homo sapiens, K562, CTG, read-out: Absolute IC50): 0.46 µM
- IC50 (MCF7; [1]): 1.61 µM
- IC50 (MDA-MB-231; [1]): 1.81 µM
- IC50 (NCI-H1299; [1]): 3.4 µM
- IC50 (NCI-H1417; [1]): 0.33 µM
- IC50 (PANC-1; [1]): 5.84 µM
- IC50 (SU-DHL-6; [1]): 0.3 µM
Compound: Cc1ccc(C(=O)Nc2cc(N3CCNCC3)ccc2-c2ccc(/C=C/C(=O)NO)cc2C)cc1.Cl [ZZY-003]
- % inhibition at top conc. (143B; highest concentration 10/50 μM): 99.97%
- IC50 (143B; [1]): 2.25 µM
- % inhibition at top conc. (786-O; [2]): 99.96%
- % inhibition at top conc. (A549; highest concentration 10/50 μM): 95.22%
- % inhibition at top conc. (B16-F10; highest concentration 10/50 μM): 99.98%
- % inhibition at top conc. (DLD-1; highest concentration 10/50 μM): 97.98%
- % inhibition at top conc. (H69AR; highest concentration 10/50 μM): 96.23%
- IC50 (H69AR; [1]): 4.36 µM
- % inhibition at top conc. (HCT-116; highest concentration 10/50 μM): 99.94%
- % inhibition at top conc. (Hep G2; [2]): 99.98%
- IC50 (Hep G2; Homo sapiens, HepG2, CTG, read-out: Absolute IC50): 0.84 µM
- % inhibition at top conc. (HuCCT1; [2]): 99.88%
- IC50 (HuCCT1; Homo sapiens, HuCCT-1, CTG, read-out: Absolute IC50): 1.35 µM
- % inhibition at top conc. (JVM-3; highest concentration 10/50 μM): 99.48%
- IC50 (JVM-3; [1]): 0.35 µM
- % inhibition at top conc. (K-562; [2]): 99.85%
- % inhibition at top conc. (LN-229; highest concentration 10/50 μM): 99.97%
- IC50 (LN-229; [1]): 1.57 µM
- % inhibition at top conc. (MCF 10A; highest concentration 10/50 μM): 97.73%
- IC50 (MCF 10A; [1]): 1.49 µM
- % inhibition at top conc. (MCF7; highest concentration 10/50 μM): 96.26%
- % inhibition at top conc. (MDA-MB-231; highest concentration 10/50 μM): 92.06%
- % inhibition at top conc. (NCI-H1299; highest concentration 10/50 μM): 99.94%
- % inhibition at top conc. (NCI-H1417; highest concentration 10/50 μM): 97.14%
- % inhibition at top conc. (OE19; highest concentration 10/50 μM): 98.95%
- IC50 (OE19; [1]): 0.78 µM
- % inhibition at top conc. (PANC-1; highest concentration 10/50 μM): 96.79%
- % inhibition at top conc. (SF268; [2]): 99.82%
- IC50 (SF268; Homo sapiens, SF-268, CTG, read-out: Absolute IC50): 1.09 µM
- % inhibition at top conc. (SU-DHL-6; highest concentration 10/50 μM): 99.91%
